Measurements reported in patent US20100317047A1, “Biomarkers of Hemorrhagic Shock” (THE GENERAL HOSPITAL CORPORATION, priority 2009, published 2010).

Tests used:
claudin-3 mRNA = test: RT-PCR of intestinal claudin-3 mRNA in hemorrhagic shock model; format: in vivo; settings: rat intestine, 1, 6 and 24 hours; β-actin internal control, n=3
Protocol: To assess whether gene expression of claudin-3 responds to HS and VPA treatment, the mRNA expression of rat intestines among the groups of sham, HS and VPA treatment was compared at 1, 6 and 24 hours using RT-PCR methods.

hemorrhagic shock [1] = test: Survival in lethal model of hemorrhagic shock; format: in vivo, rat; settings: rats, 60% blood volume hemorrhage, VPA 300 mg/kg; none of the untreated animals survived
Protocol: (§1) An animal model of HS was used. Male Wistar-Kyoto rats (254.12±2.71 grams, Harlan, Indianapolis, Ind.) were used in the lethal model of hemorrhagic shock (Shults et al., J. Trauma. 2008; 64(3): 629-638). Each animal's estimated blood volume was calculated using the formula: [estimated blood volume (mL)=weight (g)×0.06 (mL/g)+0.77]. About 1.3 mL of blood was manually drawn at the beginning and end of hemorrhage for analysis (included in the total hemorrhage calculation). The animals were hemorrhaged (40% of their calculated total blood volume) via a femoral arterial catheter over 10 minutes, followed by a 20% blood volume venous bleed over the next 50 minutes. Bleeding was performed using Kent Scientific adjustable pumps (Kent Scientific Corporation, NJ). VPA (300 mg/kg) was administered via a femoral vein catheter after completion of hemorrhage. Blood pressure was monitored continuously during the experiment. The mean arterial pressure (MAP) in animals that were subjected to hemorrhage dropped sharply after bleeding to approximately 20 mm Hg. Blood was drawn at baseline (BL, before hemorrhage), hemorrhagic shock (HS), and 24 hours after VPA treatment from individual rats for protein biomarker screening and identification. […]

hemorrhagic shock [2] = settings: rats; Shults et al. 2008, Li et al. 2008, WO 2007117272; cited from earlier work
claudin-3 [3] = test: Western blot of intestinal claudin-3 protein in hemorrhagic shock model; format: in vivo; settings: rat intestinal lysate, 1, 6 and 24 hours after VPA treatment, vs HS 1 hour; n=3
Protocol: as §1, with “experiment.” for “experiment. The mean arterial pressure (MAP) in animals that were subjected to hemorrhage dropped sharply after bleeding to approximately 20 mm Hg. Blood was drawn at baseline (BL, before hemorrhage), hemorrhagic shock (HS), and 24 hours after VPA treatment from individual rats for protein biomarker screening and identification.”
Claudin-3 is a TJ protein that has important roles in establishing epithelial and endothelial barriers. To find out whether HS and VPA treatment affect claudin-3 protein in TJ of epithelial cells, protein expression was analyzed in intestinal tissue obtained from sham, HS 1 hour (1 hour after hemorrhagic shock), and VPA-treated animals (1 hour, 6 hours, and 24 hours after treatment). […]

claudin-3 [4] = test: Western blot of serum claudin-3 in hemorrhagic shock model; format: in vivo; settings: rat serum, 1 hour following VPA treatment; HS 1 hour group showed ~23 kDa and ~11 kDa bands
Protocol: An animal model of HS was used. Male Wistar-Kyoto rats (254.12±2.71 grams, Harlan, Indianapolis, Ind.) were used in the lethal model of hemorrhagic shock (Shults et al., J. Trauma. 2008; 64(3): 629-638). Each animal's estimated blood volume was calculated using the formula: [estimated blood volume (mL)=weight (g)×0.06 (mL/g)+0.77]. About 1.3 mL of blood was manually drawn at the beginning and end of hemorrhage for analysis (included in the total hemorrhage calculation). The animals were hemorrhaged (40% of their calculated total blood volume) via a femoral arterial catheter over 10 minutes, followed by a 20% blood volume venous bleed over the next 50 minutes. Bleeding was performed using Kent Scientific adjustable pumps (Kent Scientific Corporation, NJ). VPA (300 mg/kg) was administered via a femoral vein catheter after completion of hemorrhage. Blood pressure was monitored continuously during the experiment. […]
To assess whether claudin-3 is a potential biomarker, independent serum samples were taken of sham (no hemorrhage and no treatment), HS 1 hour (1 hour following hemorrhagic shock), and VPA 1 hour (1 hour following VPA treatment) from individual rats and the level of the candidate biomarker was determined by Western blot with anti-claudin-3 antibody. […]

22.7 kDa protein = test: SELDI-TOF MS serum protein profiling in lethal hemorrhagic shock model; format: in vivo; settings: rat serum, 24 hours after VPA 300 mg/kg via femoral vein after hemorrhage; p<0.05 vs HS, n=5
Protocol: as §1, with “Hg.” for “Hg. Blood was drawn at baseline (BL, before hemorrhage), hemorrhagic shock (HS), and 24 hours after VPA treatment from individual rats for protein biomarker screening and identification.”
ProteinChip profiling was performed on CM10 ProteinChip arrays (Ciphergen Biosystems, Fremont Calif.), as recommended by the manufacturer. […] The arrays were then inserted into a ProteinChip (Enterprise edition) TOF-MS and read at an optimized laser setting of 2000 nJ-5000 nJ. […]

claudin-3 [5] = test: iTRAQ quantification of serum claudin-3 peptide in hemorrhagic shock model; format: in vivo; settings: rat serum, 24 hours post-VPA treatment (300 mg/kg) vs post-hemorrhagic shock; BL to HS ratio 0.323
Protocol: as §1, with “Hg.” for “Hg. Blood was drawn at baseline (BL, before hemorrhage), hemorrhagic shock (HS), and 24 hours after VPA treatment from individual rats for protein biomarker screening and identification.”
Immunodepletion of serum abundant proteins was performed as follows. […] Column performance was monitored by sodium dodecyl sulphate-polyacrylamide gel electrophoresis (SDS-PAGE) followed by Coomassie Blue staining (BioBlue, BioRad). […]

For `CCCC(CCC)C(=O)O` [VPA, Valproic acid], the “intestinal claudin-3 mRNA expression by RT-PCR” value (claudin-3 mRNA) is given as “did not significantly change claudin-3 mRNA expression”, the “survival after hemorrhagic shock” value (hemorrhagic shock [1]) is given as “survived” and the “survival after lethal HS (literature)” value (hemorrhagic shock [2]) is given as “improves survival after lethal HS in rats”. The “intestinal claudin-3 protein level by Western blot” value (claudin-3 [3]) was “significantly attenuated the HS-induced reduction of claudin-3”, the “serum claudin-3 by Western blot” value (claudin-3 [4]) was “no claudin-3 was detected” and the “serum level of 22.7 kDa protein (SELDI-TOF MS peak intensity) vs HS” value (22.7 kDa protein) was “down-regulated in the VPA group sharply”. For the same compound, the “ratio of VPA to HS, claudin-3 peptide iTRAQ tag intensity in serum” value (claudin-3 [5]) was 0.425.
